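Results reflect a 48-hour exposure of cells in 96-well plates to compound at five concentrations. Here, GI50 denotes the concentration required for 50% inhibition of growth. TGI: concentration producing complete growth inhibition.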
Legend:
Assay in all cases: growth of human tumour cells (NCI), 48 h
[1] = system: K-562 leukemia
[2] = system: UO-31 renal
[3] = system: SF-539 CNS
[4] = system: RPMI-8226 leukemia
[5] = system: NCI-H226 lung
[6] = system: HCT-15 colon
[7] = system: SK-MEL-5 melanoma
[8] = system: NCI-H460 lung
[9] = system: SNB-19 CNS
[10] = system: OVCAR-3 ovarian

Row | SMILES | TGI [1] | TGI [2] | TGI [3] | TGI [4] | TGI [5] | TGI [6] | TGI [7] | TGI [8] | TGI [9] | TGI [10] | GI50 [1] | GI50 [4] | GI50 [6]
1 | O=[N+]([O-])c1ccc(-c2cc(O)c3nc4ccccc4n3c2)cc1 | > 100 µM | > 100 µM | > 100 µM | > 100 µM | > 100 µM | > 100 µM | > 100 µM | > 100 µM | > 100 µM | > 100 µM |  |  | 
2 | Cc1ccc(/C=N/n2c(Cc3ccccc3)n[nH]c2=O)cc1 | > 100 µM | > 100 µM | > 100 µM | > 100 µM | > 100 µM | > 100 µM | > 100 µM | > 100 µM | > 100 µM | > 100 µM |  |  | 
3 | O=[N+]([O-])c1ccc2nc(Cl)n[n+]([O-])c2c1 | 2.74 µM | 30.7 µM | 25.3 µM | 9.1 µM | 42.2 µM | 29.7 µM | 20.7 µM | 43.3 µM | > 61.5 µM | 21.9 µM |  |  | 
4 | O=C(NC(Cl)(C(F)(F)F)C(F)(F)F)c1ccc(F)cc1 | > 100 µM | > 100 µM | > 100 µM | > 100 µM | > 100 µM | > 100 µM | > 100 µM | > 100 µM | > 100 µM | > 100 µM |  |  | 
5 | C=C(C)C(=O)O[C@H]1CC2=C[C@@H](C[C@@]3(C)O[C@@H]3[C@H]3OC(=O)C(=C)[C@@H]31)OC2=O | 47.6 µM | 13.8 µM | 8.21 µM | 26.3 µM | 30.7 µM | 2.72 µM | 8.22 µM | 10.6 µM | 49.1 µM | 3.74 µM | 1.21 µM | 0.915 µM | 0.773 µM
6 | CN(C)CCCC1c2ccccc2Oc2ccc(C(F)(F)F)cc21 (configuration not stated) | 18.3 µM | 6.49 µM | 29.5 µM | 25.3 µM | 23.1 µM | 31.5 µM | 21 µM | 31.8 µM | 31.3 µM | 29.2 µM |  |  | 
7 | CCOC(=O)CCC(NC(=O)Cc1ccc(Nc2nc3ccccc3nc2-c2cccs2)cc1)C(=O)OCC (configuration not stated) | > 100 µM | > 100 µM | > 100 µM | > 100 µM | > 100 µM | > 100 µM | > 100 µM | > 100 µM | > 100 µM | > 100 µM |  |  | 
8 | CCCCCCCCCCCCCCCCCCNc1ccn(C2OC(COP(=O)(O)OCC3OC(n4cc(C)c(=O)[nH]c4=O)CC3F)C(O)C2O)c(=O)n1 (configuration not stated) | 42.5 µM | 43.6 µM | 19.9 µM | 12.9 µM | 59.5 µM | 15.9 µM | 44.9 µM | 43.9 µM | 14.1 µM | 50.5 µM |  |  | 
9 | CCOP(=O)(OCC)C(C)(C)N(C)/C(F)=N/C(F)(F)F | > 100 µM | > 100 µM | > 100 µM | > 100 µM | > 100 µM | > 100 µM | > 100 µM | > 100 µM |  | > 100 µM |  |  | 
10 | CC(=O)OCC(OC(C)=O)C(OC(C)=O)C(/C=N\Nc1nc2ccccc2c(=O)[nH]1)=N\Nc1nc2ccccc2c(=O)[nH]1 (configuration not stated) | > 100 µM | > 100 µM | > 100 µM | > 100 µM | > 100 µM | > 100 µM | > 100 µM | 47.6 µM | > 100 µM | > 100 µM |  |  | 
11 | C[Si](C)(C)C#Cc1cc(-c2nc3ccccc3s2)ccc1N | 70.6 µM | 26.4 µM | 34.5 µM | 48.3 µM | 31.2 µM | 32.1 µM | 29.4 µM | 31.1 µM | 34.6 µM | 39.2 µM |  |  | 
12 | S=C(NNC1=NCCCCN1)Nc1ccc(Cl)cc1 | > 100 µM | 31.6 µM | 76.5 µM | > 100 µM | > 100 µM | > 100 µM | 20.5 µM | > 100 µM | > 100 µM | > 100 µM |  |  | 
13 | COC(=O)c1c(C)cccc1C1CN=NC12Cc1ccccc1C2=O (configuration not stated) | > 100 µM | > 100 µM | > 100 µM | > 100 µM | > 100 µM | > 100 µM | > 100 µM | > 100 µM | > 100 µM | > 100 µM |  |  | 
14 | OCc1cc2c(ccc3sc4ccc5sc6ccc7ncccc7c6c5c4c32)s1 | > 100 µM | 7.25 µM | 32.4 µM | 96.2 µM | > 100 µM | 33.6 µM | 11.8 µM | 26.3 µM | 28.7 µM | > 100 µM |  |  | 
15 | CC(C)(C)c1cc(-c2cc(C(C)(C)C)[nH]n2)n[nH]1 | > 100 µM | > 100 µM | > 100 µM | > 100 µM | > 100 µM | > 100 µM | > 100 µM | > 100 µM | > 100 µM | > 100 µM |  |  | 
16 | CCCCc1ccc(Nc2nc(Cl)c3ncn(COCCOC(C)=O)c3n2)cc1 | 55.5 µM | 29.7 µM | 63.3 µM | 55.4 µM | 50.7 µM | 31.6 µM | 30.9 µM | 32.9 µM | 38.7 µM | 43.4 µM |  |  | 

— PubChem BioAssay (NCI)
